Our source for the IC50 values is patent US9745289B2, “Aldosterone synthase inhibitors” (Boehringer Ingelheim International GmbH, priority 2014, dated 2017).

A value given as a limit tells only on which side of the number the result lay.

For the assay, the target named is cortisol synthase (CYP11B1) (Macaca fascicularis, UniProt A0A2K5ULY1). Kind of assay: Inhibition of Cortisol Synthesis. Type of assay: biochemical, cynomolgus monkey. To be noted: cynomolgus adrenal gland mitochondria; 150 units of CYP11B1, 11-deoxycortisol as substrate, cortisol measured as product. The protocol:
The aldosterone synthase and cortisol synthase inhibition assays employ cynomolgus adrenal gland mitochondria as the source of aldosterone synthase (CYP11B2) and cortisol synthase (CYP11B1). […] Activity of CYP11B2 and CYP11B1 in these preparations is defined as the amount of enzyme that generates 1 pmol of product in one hour under the conditions described.
Assays are performed in 96-well format in a final volume of 60 μL/well, containing 100 mM potassium phosphate, pH 7.4, 1% (v/v) DMSO, and additionally, 2 μM of corticosterone and 50 units of CYP11B2 activity. Reactions are started by the addition of NADPH to 1 mM and allowed to proceed for 90 minutes at 37° C. Reactions are terminated by the addition of 60 μL of MeCN containing an internal standard for mass spectrometry. One hundred microliters are then transferred to a glass filter plate and centrifuged at 570×g for 5 minutes and the filtrate is collected. Reaction product aldosterone is quantified by mass spectrometry. To determine the assay blank value (0% activity), NADPH is omitted from some reactions.
Dose dependent inhibition is quantified by the inclusion of compound at various concentrations. Maximum activity (100%) is defined by reactions containing NADPH, but without compound.
Assays are performed as for aldosterone synthase except for the use of 150 units of CYP11B1, 11-deoxycortisol as substrate and cortisol measured as product.
`NC(=O)c1cccc2c1OCC(c1cncc(C(F)F)c1)O2` (single isomer, unassigned) [Cpd 22B, 2-(5-Difluoromethyl-pyridin-3-yl)-2,3-dihydro-benzo[1,4]dioxlne-5-carboxylic acid amide] displayed an IC50 of 2.3 µM.

As to `Cc1ccncc1C1COc2c(cccc2C(N)=O)O1` (single isomer, unassigned) [Cpd 23A, 2-(4-Methyl-pyridin-3-yl)-2,3-dihydro-benzo[1,4]dioxine-5-carboxylic acid amide], the IC50 was found to be 1.4 µM.

As for `Cc1ccncc1C1COc2c(cccc2C(N)=O)O1` (single isomer, unassigned) [Cpd 23B, 2-(4-Methyl-pyridin-3-yl)-2,3-dihydro-benzo[1,4]dioxine-5-carboxylic acid amide], half-maximal inhibition (IC50) was put at 2 µM. This IC50 and that of the compound before are within 1.5-fold of each other.

With `CN(Cc1cncc(C2COc3c(cccc3C(N)=O)O2)c1)C(=O)C1CC1` (single isomer, unassigned) [Cpd 24A, 2-{5-[(Cyclopropanecarbonyl-methyl-amino)-methyl]-pyridin-3-yl}-2,3-dihydro-benzo[1,4]dioxine-5-carboxylic acid amide], the concentration for half-maximal inhibition (IC50) stood at 7 µM.

For the compound `CN(Cc1cncc(C2COc3c(cccc3C(N)=O)O2)c1)C(=O)C1CC1` (single isomer, unassigned) [Cpd 24B, 2-{5-[(Cyclopropanecarbonyl-methyl-amino)-methyl]-pyridin-3-yl}-2,3-dihydro-benzo[1,4]dioxine-5-carboxylic acid amide], the IC50 worked out at 25 µM.

For the compound `CN(C)C(=O)COCc1cncc(C2COc3c(cccc3C(N)=O)O2)c1` (single isomer, unassigned) [Cpd 25A, 2-(5-Dimethylcarbamoylmethoxymethyl-pyridin-3-yl)-2,3-dihydro-benzo[1,4]dioxine-5-carboxylic acid amide], the IC50 is over 100 µM.

For the compound `CN(C)C(=O)COCc1cncc(C2COc3c(cccc3C(N)=O)O2)c1` (single isomer, unassigned) [Cpd 25B, 2-(5-Dimethylcarbamoylmethoxymethyl-pyridin-3-yl)-2,3-dihydro-benzo[1,4]dioxine-5-carboxylic acid amide], the half-inhibitory concentration (IC50) worked out at 15 µM. This lies in the double-digit micromolar range.

In the case of `NC(=O)c1cccc2c1OCC(c1cncc(C3(O)CCC3)c1)O2` (single isomer, unassigned) [Cpd 26A, 2-[5-(1-Hydroxy-cyclobutyl)-pyridin-3-yl]-2,3-dihydro-benzo[1,4]dioxine-5-carboxylic acid amide], the half-maximal inhibitory concentration (IC50) came to 1.8 µM.

With `NC(=O)c1cccc2c1OCC(c1cncc(C3(O)CCC3)c1)O2` (single isomer, unassigned) [Cpd 26B, 2-[5-(1-Hydroxy-cyclobutyl)-pyridin-3-yl]-2,3-dihydro-benzo[1,4]dioxine-5-carboxylic acid amide], half-maximal inhibition (IC50) was put at 0.67 µM.

For `Cc1c(C(C)O)cncc1C1COc2c(cccc2C(N)=O)O1` (single isomer, unassigned) [Cpd 27A, 2-[5-(1-Hydroxy-ethyl)-4-methyl-pyridin-3-yl]-2,3-dihydro-benzo[1,4]dioxine-5-carboxylic acid amide], the IC50 is 2.8 µM. This IC50 is about 4.2-fold higher than that of the compound before.

With `Cc1c(C(C)O)cncc1C1COc2c(cccc2C(N)=O)O1` (single isomer, unassigned) [Cpd 27B, 2-[5-(1-Hydroxy-ethyl)-4-methyl-pyridin-3-yl]-2,3-dihydro-benzo[1,4]dioxine-5-carboxylic acid amide], it took 5 µM to reach half-maximal inhibition (IC50).

With `CNC(=O)c1cccc2c1OCC(c1cncc(C(F)(F)F)c1)O2` (single isomer, unassigned) [Cpd 28A, 2-(5-Trifluoromethyl-pyridin-3-yl)-2,3-dihydro-benzo[1,4]dioxine-5-carboxylic acid methylamide], the 50% inhibitory concentration (IC50) was over 30 µM.

For the compound `CNC(=O)c1cccc2c1OCC(c1cncc(C(F)(F)F)c1)O2` (single isomer, unassigned) [Cpd 28B, 2-(5-Trifluoromethyl-pyridin-3-yl)-2,3-dihydro-benzo[1,4]dioxine-5-carboxylic acid methylamide], the IC50 was 6.1 µM.

Regarding `CN(C)C(=O)Cc1cncc(C2COc3c(cccc3C(N)=O)O2)c1` (single isomer, unassigned) [Cpd 29A, 2-[5-[2-(Dimethylamino)-2-oxo-ethyl]-3-pyridyl]-2,3-dihydro-1,4-benzodioxine-5-carboxamide], the IC50 was 22 µM.

Regarding `CN(C)C(=O)Cc1cncc(C2COc3c(cccc3C(N)=O)O2)c1` (single isomer, unassigned) [Cpd 29B, 2-[5-[2-(Dimethylamino)-2-oxo-ethyl]-3-pyridyl]-2,3-dihydro-1,4-benzodioxine-5-carboxamide], the half-maximal inhibitory concentration (IC50) is over 30 µM.

Consider `NC(=O)c1cccc2c1OCC(c1cncc(CC(=O)N3CCC(F)(F)CC3)c1)O2` (single isomer, unassigned) [Cpd 30A, 2-{5-[2-(4,4-Difluoro-piperidin-1-yl)-2-oxo-ethyl]-pyridin-3-yl}-2,3-dihydro-benzo[1,4]dioxine-5-carboxylic acid amide], for which the IC50 amounted to 22 µM.

Compound `NC(=O)c1cccc2c1OCC(c1cncc(CC(=O)N3CCC(F)(F)CC3)c1)O2` (single isomer, unassigned) [Cpd 30B, 2-{5-[2-(4,4-Difluoro-piperidin-1-yl)-2-oxo-ethyl]-pyridin-3-yl}-2,3-dihydro-benzo[1,4]dioxine-5-carboxylic acid amide] registered a concentration for half-maximal inhibition (IC50) of 24 µM. This IC50 and that of the compound before are within 1.5-fold of each other.

`NC(=O)c1cccc2c1OCC(c1cncc(CN3CCOC3=O)c1)O2` (single isomer, unassigned) [Cpd 31A, 2-[5-(2-Oxo-oxazolidin-3-ylmethyl)-pyridin-3-yl]-2,3-dihydro-benzo[1,4]dioxine-5-carboxylic acid amide] yielded an IC50 of over 30 µM.

`NC(=O)c1cccc2c1OCC(c1cncc(CN3CCOC3=O)c1)O2` (single isomer, unassigned) [Cpd 31B, 2-[5-(2-Oxo-oxazolidin-3-ylmethyl)-pyridin-3-yl]-2,3-dihydro-benzo[1,4]dioxine-5-carboxylic acid amide] came in with an IC50 of over 30 µM.

As to `NC(=O)c1cccc2c1OCC(c1cncc(C3(F)CCOCC3)c1)O2` (single isomer, unassigned) [Cpd 32A, 2-[5-(4-Fluoro-tetrahydro-pyran-4-yl)-pyridin-3-yl]-2,3-dihydro-benzo[1,4]dioxine-5-carboxylic acid amide], it took 6 µM to reach half-maximal inhibition (IC50).

`NC(=O)c1cccc2c1OCC(c1cncc(C3(F)CCOCC3)c1)O2` (single isomer, unassigned) [Cpd 32B, 2-[5-(4-Fluoro-tetrahydro-pyran-4-yl)-pyridin-3-yl]-2,3-dihydro-benzo[1,4]dioxine-5-carboxylic acid amide] came in with an IC50 of 0.35 µM.

For the compound `CNC(=O)c1cccc2c1OCC(c1cncc(OC3CCN(C(C)=O)CC3)c1)O2` (single isomer, unassigned) [Cpd 33A, 2-[5-(1-Acetyl-piperidin-4-yloxy)-pyridin-3-yl]-2,3-dihydro-benzo[1,4]dioxine-5-carboxylic acid methylamide], the IC50 was over 30 µM.

Take `CNC(=O)c1cccc2c1OCC(c1cncc(OC3CCN(C(C)=O)CC3)c1)O2` (single isomer, unassigned) [Cpd 33B, 2-[5-(1-Acetyl-piperidin-4-yloxy)-pyridin-3-yl]-2,3-dihydro-benzo[1,4]dioxine-5-carboxylic acid methylamide]: the 50% inhibitory concentration (IC50) is over 30 µM.

As for `N#Cc1cccc2c1OCC(c1cncc(CN3CCOC3=O)c1)O2` (single isomer, unassigned) [Cpd 34A, 2-[5-(2-Oxo-oxazolidin-3-ylmethyl)-pyridin-3-yl]-2,3-dihydro-benzo[1,4]dioxine-5-carbonitrile], the IC50 was determined as 8.5 µM.

With `N#Cc1cccc2c1OCC(c1cncc(CN3CCOC3=O)c1)O2` (single isomer, unassigned) [Cpd 34B, 2-[5-(2-Oxo-oxazolidin-3-ylmethyl)-pyridin-3-yl]-2,3-dihydro-benzo[1,4]dioxine-5-carbonitrile], the concentration for half-maximal inhibition (IC50) is over 30 µM.

In the case of `CN1C(=O)CCC1c1cncc(C2COc3c(C#N)cccc3O2)c1` (single isomer, unassigned) [Cpd 35A, 2-[5-(1-Methyl-5-oxo-pyrrolidin-2-yl)-pyridin-3-yl]-2,3-dihydro-benzo[1,4] dioxine-5-carbonitrile], the IC50 was 0.53 µM.

`CN1C(=O)CCC1c1cncc(C2COc3c(C#N)cccc3O2)c1` (single isomer, unassigned) [Cpd 35B, 2-[5-(1-Methyl-5-oxo-pyrrolidin-2-yl)-pyridin-3-yl]-2,3-dihydro-benzo[1,4] dioxine-5-carbonitrile] gave an IC50 of 6.2 µM. This IC50 is about 12-fold higher than that of the compound before.

In turn, `N#Cc1cccc2c1OCC(c1cncc(CN3CCOCC3=O)c1)O2` (single isomer, unassigned) [Cpd 36A, 2-[5-(3-Oxo-morpholin-4-ylmethyl)-pyridin-3-yl]-2,3-dihydro-benzo[1,4]dioxine-5-carbonitrile] returned an IC50 of over 30 µM.

`N#Cc1cccc2c1OCC(c1cncc(CN3CCOCC3=O)c1)O2` (single isomer, unassigned) [Cpd 36B, 2-[5-(3-Oxo-morpholin-4-ylmethyl)-pyridin-3-yl]-2,3-dihydro-benzo[1,4]dioxine-5-carbonitrile]: the IC50 amounted to 5.8 µM.

In turn, `CS(=O)(=O)Cc1cncc(C2COc3c(C#N)cccc3O2)c1` (single isomer, unassigned) [Cpd 37A, 2-(5-Methanesulfonylmethyl-pyridin-3-yl)-2,3-dihydro-benzo[1,4]dioxine-5-carbonitrile] showed a 50% inhibitory concentration (IC50) of 25 µM.

By IC50 is commonly meant the concentration needed to halve the response being measured.
